The subject of the assay is B16 melanoma. As to the kind of experiment: Tumor growth and survival of mice which have a B16 melanoma. It is filed as in vivo, mouse. The note with it: for inhibition of tumor growth: mice with subcutaneous B16 melanoma, dose of 300 mg/kg. The protocol: A melanoma is induced in a mouse by subcutaneous injection of tumor cells (B16 cells).
The tumor develops within 10 days in the subcutaneous position (ventral face of the thigh). The size of the tumor is measured with a caliper rule and its volume is estimated according to the formula V=L×w×w, in which L represents the length and w represents the width. Various compounds of the invention were administered to mice having received syngenic melanoma cells (B16) at a dose of 300 mg/kg.

Regarding “6-(METHYL 6-DEOXY-α-D-MANNOPYRANOSIDE) BORONIC ACID [compound 7f]”, the “inhibition of tumor growth” value was determined as 65%. Besides, the “mortality in treated mouse group” value (after 18 days of treatment, 300 mg/kg, nontreated mouse group 40% mortality) is listed as “no mortality”. As to “METHYL 6-O-HYDROGENOPHOSPHONATE-α-D-MANNO-PYRANOSIDE [compound 4e]”, the “inhibition of tumor growth” value is given as 40%.
